Experimental data published in patent US6040149A, “Assay for identifying agents which act on the ceramide-activated protein kinase, kinase suppressor of ras, and methods of using said agents” (priority 1997, dated 2000).
Where two headings read alike, the source gives them in different places.

What was measured:
[1] = tested on: ceramide-activated protein kinase; settings: nuclei-free supernates, ref. [40], cited from earlier work
[2] = tested on: ceramide-activated protein kinase; experiment: EGFR peptide phosphorylation by kinase in A-431 microsomal membranes / postnuclear supernatant; format: biochemical, human (A-431 epidermoid carcinoma cells)
Protocol: Kinetics of ^32 Pi incorporation into the EGFR peptide. […] The reaction was initiated by addition of 50 μl of [γ-^32 P]ATP (150 μM final concentration) and terminated by addition of 50 μl of 0.5 M ATP in 90% (vol/vol) formic acid. Samples were spotted on phosphocellulose paper, washed with 1 M acetic acid/4 mM pyrophosphate, and ^32 P incorporation was measured by liquid-scintillation counting, as described. A boiled protein blank was subtracted from each data value. The data (means) represent duplicate samples from one of two similar experiments. […]
Kinetics of ceramide-induced ^32 Pi incorporation into EGFR peptide. Peptide phosphorylation was done as described in FIG. 2 in the absence (.smallcircle.) or presence (.circle-solid.) of 0.5 μM C8 -ceramide. Phosphorylated peptide was resolved by HPLC. Values (means) represent data from three experiments.
Concentration-dependence of ceramide-induced ^32 Pi incorporation into EGFR peptide. Peptide phosphorylation reactions were done as described for FIG. 2, for 2 minutes, using various concentrations of ceramide (0.001-3 μM). Phosphorylated peptide was resolved by HPLC. Values (means) represent data from three experiments. […]
Phosphorylation was initiated at 22° C. by addition of 50 μl of [γ-^32 P] ATP (150 μM final concentration; 4000 dpm/pmol). For studies with lipid activators, ceramide and other lipids were dried under N2 and resuspended in the kinase assay buffer by bath sonication for 2 minutes at 37° C.
Phosphorylated peptide was quantified by two separate methods. For initial studies, samples were spotted on phosphocellulose paper, washed in 1 M acetic acid/4 mM pyrophosphate and subjected to liquid scintillation counting, according to methods well known to those skilled in the art. Values obtained from a boiled blank or a sample lacking peptide were subtracted from each determination. Alternatively, HPLC was done according to methods well known to those skilled in the art. For these studies, samples were first applied to a C18 Sep-Pak cartridge and eluted with 99.9% acetonitrile/0.1% trifluoroacetic acid. The eluates were lyophilized, resuspended in 6 M guanidine hydrochloride/200 mM Tris, pH 8.5 and applied to a C18 reverse-phase column (Dynamax, 4.6 mm i.d., Rainin, Woburn, Mass.). The peptide was eluted with a linear gradient (1% per minute) of acetonitrile at a flow rate of 1 ml/minute and was detected by measuring the Cerenkov radiation associated with 1-ml fractions.

[3] = tested on: ceramide-activated protein kinase; experiment: Ceramide-activated protein kinase activity (EGFR peptide) in EL-4 cell fractions; settings: baseline, EL-4 membranes
Protocol: Effect of IL-1β on ceramide-activated protein kinase activity. […] Homogenates were centrifuged at 500×g for 5 minutes to remove nuclei and at 200,000×g for 30 minutes to prepare microsomal membranes. Membranes were resuspended into homogenizing buffer (2.2 μg membrane protein μl^-1). For assay of kinase activity, the reaction mixture contained 20 μl of microsomal membrane, 40 μl EGFR peptide (4 mg ml^-1 in 25 mM Hepes, pH 7.4) and 100 μl buffer (50 mM HEPES, pH 7.4, 20 mM MgCl2). Phosphorylation was initiated at 22° C. by addition of 40 μl [γ-^32 P] ATP (100 μM final concentration) and terminated at the indicated times by addition of 40 μl of 0.5 M ATP in 90% formic acid. Phosphorylated peptide was eluted from a C18 Sep pak cartridge (Millipore), lyophilized, and resolved by C18 reverse phase HPLC using a linear gradient of acetonitrile. […] All assays were performed under conditions determined as linear for time and enzyme concentration. Enzyme activity was determined from the percent conversion of substrate to product and the specific radioactivity of [γ-^32 P] ATP. […] Values (mean±range) represent duplicate determinations from two experiments.
Activity was measured by the transfer of ^32 P from the γ-position of ATP to EGFR peptide (AA 663-681 of the EGFR). The effect of IL-1β on kinase activity was determined using microsomal membranes derived from cells stimulated with IL-1β.

CAP kinase = experiment: Phosphorylation of Raf-1 peptides by CAP kinase; format: biochemical, bovine (brain)
[4] = tested on: ceramide-activated protein kinase; experiment: CAP kinase activation in HL-60 cells (renaturation and autophosphorylation); format: cell-based, human (HL-60 cells)
Protocol: Stimulation of ceramide-activated protein (CAP) kinase by lipid A. On the day of an experiment, HL-60 cells were resuspended (1×10^6 cells ml^-1) into serum-free RPMI 1640 containing 5 μg ml^-1 insulin and transferrin. After 2 h, cells were stimulated with lipid A (Escherichia Coli) or diluent (DMSO, <0.01%). Ceramide-activated protein kinase contained within microsomal membranes was detected by renaturation and autophosphorylation. Briefly, membrane proteins (200 μg per lane) were separated by SDS-PAGE (10%), and the gel was washed with two changes of buffer (50 mM Tris, pH 7.4, 5 mM 2-mercaptoethanol) containing 20% 2-propanol at room temperature for 1 h, and once in buffer without 2-propanol for 1 h. Denaturation was accomplished by incubation of the gel in two changes of 6M guanidinium HCl in wash buffer for 1 h each. Renaturation was accomplished by incubation of the gel overnight at 4° C. in wash buffer containing 0.04% Tween-20. The gel was then equilibrated for 10 min at room temperature in kinase reaction mixture (25 mM HEPES, pH 7.4, 10 mM MgCl2, 0.5 mM EGTA and 5 mM NaF) and [γ-^32 p] ATP (50 μM final concentration; 1000 dpm pmol^-1) was added. Autophosphorylation was terminated by removal of the reaction mixture. The gel was washed with 6 changes of buffer (5% trichloroacetic acid, 1% sodium pyrophosphate) for 2 h and subjected to autoradiography. Top panel--Time course of lipid A activation. Bottom panel--Dose response at 5 minutes of lipid A stimulation. Autoradiograms represent one of three similar studies in both panels A and B.
On the day of an experiment, cells were resuspended (1×10^6 cells ml^-1) into serum-free RPMI 1640 containing 5 μg ml^-1 insulin and transferrin. After 2 h, cells were stimulated with lipid A or diluent (DMSO, <0.01% ). […] The postnuclear supernate was centrifuged at 200,000×g for 30 min and microsomal membranes were resuspended ([…]) into homogenizing buffer. Ceramide-activated protein kinase was detected by renaturation and autophosphorylation. Briefly, membrane proteins (200 μg per lane) were separated by SDS-PAGE (10%), and the gel was washed with two changes of buffer (50 mM Tris, pH 7.4, 5 mM 2-mercaptoethanol) containing 20% 2-propanol at room temperature for 1 h, and once in buffer without 2-propanol for 1 h. Denaturation was accomplished by incubation of the gel in two changes of 6M guanidinium HCl in wash buffer for 1 h each. Renaturation was accomplished by incubation of the gel overnight at 4° C. in wash buffer containing 0.04% Tween-20. The gel was then equilibrated for 10 min at room temperature in kinase reaction mixture (25 mM HEPES, pH 7.4, 10 mM MgCl2, 0.5 mM EGTA and 5 mM NaF) and [γ-^32 P] ATP (50 μM final concentration; 1000 dpm pmol^-1. Autophosphorylation was terminated by removal of the reaction mixture. The gel was washed with 6 changes of buffer (5% trichloracetic acid, 1% sodium pyrophosphate) for 2 h and subjected to autoradiography.
For studies involving activation of ceramide-activated protein kinase by LPS, HL-60 cells (13×10^6 ml^-1) were handled as above, and LPS (Salmonella typhosa, 50 ng ml^-1), recombinant LBP (1.7 μg ml^-1) or both LPS and LBP were added for the times indicated. Isolation of microsomal membranes and autophosphorylation of ceramide-activated protein kinase were performed as above.

[5] = tested on: ceramide-activated protein kinase; experiment: Ceramide-activated protein kinase activity toward MBP after HL-60 cell treatment; format: cell-based, human (HL-60 cells)
Protocol: Membrane proteins (200 μg) from treated and untreated cells were subjected to SDS-PAGE and kinase activity was renatured as above. Autophosphorylation was allowed to proceed for 10 min and the gel was washed for 20 min with four changes of 50 mM HEPES buffer, pH 7.4. Gel slices were then excised from regions corresponding to 100-110 KDa, crushed, and incubated for 1 h with 10μ MBP (5 mg ml^-1) and 40 μl kinase reaction mixture in the presence of [γ-^32 P]ATP (50 μM final concentration). Reactions were terminated by addition of 10 μl Laemmli buffer, boiling for 3 min, and centrifugation of gel particles. The supernates were subjected to electrophoresis and autoradiography.
Since prior studies correlated enhanced autophosphorylation of ceramide-activated protein kinase with increased kinase activity toward exogenous substrate, the effect of kinase activity toward MBP was examined after treatment of HL-60 cells with lipid A. For these studies, gel slices corresponding to ceramide-activated protein kinase were subjected to autophosphorylation for 10 min in buffer containing ATP (50 μM final concentration), and then were washed and incubated with MBP in a kinase reaction mixture containing [γ-^32 P]ATP [119]. After termination of reactions, samples were subjected electrophoresis and visualized by autoradiography. […] Enhancement of MBP phosphorylation was detectable at 0.5 min of lipid A treatment and maximal at 15 min.

## Nc1ncnc2c1ncn2[C@@H]1O[C@H](COP(=O)(O)OP(=O)(O)OP(=O)(O)O)[C@@H](O)[C@H]1O [ATP, adenosine triphosphate]
[1]; read-out: Km (ATP)
  Km: 15 µM
[2]; 5 minutes, Lineweaver-Burke, read-out: apparent Km (ATP)
  Km: 15 µM
[3]; read-out: Km (ATP)
  Km: 70 µM

## NH2 -Glu-Leu-Val-Glu-Pro-Leu-Thr-Pro-Ser-Gly-Glu-Ala-Pro-Asn-Gln-Ala-Leu-Leu-Arg-COOH (H-ELVEPLTPSGEAPNQALLR-OH) [EGFR peptide]
[1]
  Km (peptide): 0.25 mg/mL
[2]; 5 minutes, Lineweaver-Burke
  apparent Km (EGFR peptide): 0.25 mg/mL
[2]; EGFR peptide phosphorylation
  apparent Vmax: 100-200 pmol.min^-1.mg of protein^-1
[3]
  Km (EGFR peptide): 0.15 mg/mL
  maximum reaction velocity: 12.5 pmol min^-1 mg^-1 of microsomal membrane protein

## RQRSTSTPNVHMVSAALPVDSRMIE [AALP (SEQ ID NO: 6)]
CAP kinase
  phosphorylation of Raf-1 peptide by CAP kinase: failed to phosphorylate

## lipid A
[4]; 500 nM lipid A, of control
  maximal activation of ceramide-activated protein kinase: 5 fold
[4]; early kinetics studies
  earliest detection of increased autophosphorylation: 30 s
[4]; lipid A
  concentration of maximal effect: 500 nM
  lowest effective concentration: 10 nM
[4]; lipid A 5 μM
  duration of enhanced autophosphorylation: 60 min
  enhancement of autophosphorylation detected at: 5 min
[5]; lipid A
  onset of enhanced MBP phosphorylation: 0.5 min
  time of maximal MBP phosphorylation: 15 min
[5]; lipid A-treated HL-60 cells
  enhancement of MBP phosphorylation: 5 fold
